Laboratory results as given in patent publication US10653688B2, “6-(6-membered heteroaryl and aryl)isoquinolin-3-yl carboxamides and preparation and use thereof” (Samumed, LLC, priority 2017, dated 2020).
Read-outs that look alike come from different tables or passages of the source.

Experiments:
[1] = biological target: recombinant DYRK1A kinase (Homo sapiens (Human), UniProt Q13627); experiment: DYRK1A kinase assay (Ser/Thr 18 peptide Z-lyte, FRET)
[2] = test system: Wnt activity (SW480 colon carcinoma cells stably expressing the Sp5-Luc reporter gene); experiment: Wnt activity screening assay (Sp5-Luc reporter gene assay); format: cell-based, human; conditions: Homo sapiens; for EC50: 36 to 48 hours; for inhibition at 10 µM: read-out: percent inhibition at 10 μM (given for EC50 >10 μM), 10 μM
Outline: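 SW480 colon carcinoma cells stably carrying a lentiviral luciferase reporter driven by an Sp5 promoter with eight TCF/LEF sites, plated at 4,000 cells/well in DMEM with 1% FBS. Compound exposure for 36–48 h at 37 °C, then luminescence read. Signals normalized to DMSO; EC50 from four-parameter nonlinear fit.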

[3] = test system: SW480 colon carcinoma cells; experiment: Cell viability assay (CellTiter-Glo); format: cell-based, human; conditions: Homo sapiens; for EC50: 96 h, four days, CellTiter-Glo; for inhibition at 10 µM: read-out: percent inhibition at 10 μM (given for EC50 >10 μM), 10 μM
recombinant GSK3β kinase = recombinant GSK3β kinase (Homo sapiens (Human), UniProt P49841); experiment: GSK3β kinase assay (Ser/Thr 09 peptide Z-lyte, FRET); format: biochemical;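 also: FRET read-out as coumarin over fluorescein emission ratio, compounds incubated one hour at room temperature, IC50 from dose-response curve fit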
Method: Each compound is dissolved in DMSO as a 10 mM stock and used to prepare compound source plates. Serial dilution (1:3, 11-point dose-response curves from 10 M to 0.0003 M) and compound transfer was performed using the ECHO 550 (Labcyte, Sunnyvale, Calif.) into 1536-well black-walled round bottom plates (Corning).
This is a non-radioactive assay using fluorescence resonance energy transfer (FRET) between coumarin and fluorescein to detect kinase activity which is represented as ratio of coumarin emission/fluorescein emission.
The mixture is allowed to incubate with the representative compounds for one hour at room temperature. All reactions were performed in duplicate. Unphosphorylated (“0% Control”) and phosphorylated (“100% control”) forms of Ser/Thr 18 serve as control reactions.
After incubation, diluted Development Buffer is added to the reaction and allowed to further incubate for one hour at room temperature.
Dose-response curves are generated and inhibitory concentration (IC50) values are calculated using non-linear regression curve fit in the Dotmatics' Studies Software (Bishops Stortford, UK).

[4] = test system: LL29 cells (primary human fibroblasts derived from IPF patients), α-smooth muscle actin; experiment: Inhibition of fibrotic process: TGF-β1-treated primary human fibroblasts, αSMA staining; format: cell-based; conditions: Homo sapiens, Fibroblast; for EC50: 96 h, TGF-β1 20 ng/mL, 4 days, % cells positive for αSMA; for inhibition at 10 µM: read-out: percent inhibition at 10 μM (given for EC50 >10 μM), TGF-β1, αSMA, 10 μM;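 as to all read-outs here: controls were TGF-β1-stimulated wells with DMSO vehicle as the positive reference and cells given DMSO alone as the negative reference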
[5] = test system: IL-6 in human peripheral blood mononuclear cells (huPBMCs); experiment: IL-6 inhibition in LPS-stimulated human peripheral blood mononuclear cells (HTRF); format: cell-based; conditions: Homo sapiens, PBMC; for EC50: LPS 50 ng/mL, 22 hours, IL-6 HTRF; for inhibition at 10 µM: read-out: percent inhibition at 10 μM (given for EC50 >10 μM), LPS, IL-6, 10 μM
Outline: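 Fresh normal human PBMCs at 1×10e6 cells/mL in RPMI with 1% FBS received compound, then 50 ng/mL E. coli 0111:B4 LPS 2 h later, and were incubated a further 22 h at 37° C. IL-6 read by HTRF (665/620 nm ratio), normalized to DMSO; EC50 from 4-parameter fit.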

[6] = DYRK1A kinase, head says EC50, method says IC50, ATP 30 μM
[7] = GSK3β kinase, head says EC50, method says IC50, ATP 46 μM

Sequence of recombinant GSK3β kinase (P49841 whole entry): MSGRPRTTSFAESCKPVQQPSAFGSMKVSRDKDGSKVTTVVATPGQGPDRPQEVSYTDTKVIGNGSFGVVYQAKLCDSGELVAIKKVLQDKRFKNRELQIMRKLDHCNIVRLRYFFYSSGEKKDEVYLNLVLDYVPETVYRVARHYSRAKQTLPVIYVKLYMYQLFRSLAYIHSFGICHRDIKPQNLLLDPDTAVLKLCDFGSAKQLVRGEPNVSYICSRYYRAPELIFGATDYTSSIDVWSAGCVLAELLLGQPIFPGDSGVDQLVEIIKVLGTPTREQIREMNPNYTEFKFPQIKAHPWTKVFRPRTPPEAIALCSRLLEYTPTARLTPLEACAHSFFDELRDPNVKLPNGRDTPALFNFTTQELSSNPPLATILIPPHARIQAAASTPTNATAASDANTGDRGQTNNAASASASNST

Row | EC50 [1, 6] [µM] | EC50 [2] [µM] | EC50 [3] [µM] | EC50 (recombinant GSK3β kinase; [7]) [µM] | EC50 [5] [µM] | EC50 [1] [µM] | EC50 (recombinant GSK3β kinase) [µM] | Structure (SMILES) | EC50 [4] [µM] | inhibition at 10 µM [4] [%] | inhibition at 10 µM [5] [%] | inhibition at 10 µM [2] [%] | inhibition at 10 µM [3] [%]
1 | 0.005 | 7.27 | 7.64 | > 10 | > 10 | – | – | O=C(Nc1cc2cc(-c3cncc(OC4CNC4)n3)ccc2cn1)c1ccc(F)cc1 [Compound 125, N-(6-(6-(Azetidin-3-yloxy)pyrazin-2-yl)isoquinolin-3-yl)-4-fluorobenzamide] | > 10 | 43.6 | 4.5 | – | –
2 | 0.022 | 0.098 | 0.768 | > 10 | 2.72 | – | – | CN1CCC(n2cc(C(=O)Nc3cc4cc(-c5cnc6[nH]ccc6c5)ccc4cn3)cn2)CC1 [Compound 126, N-(6-(1H-Pyrrolo[2,3-b]pyridin-5-yl)isoquinolin-3-yl)-1-(1-methylpiperidin-4-yl)-1H-pyrazole-4-carboxamide] | 1.45 | – | – | – | –
3 | 0.005 | 0.027 | 0.074 | > 10 | 1.56 | – | – | CN1CCC(n2cc(C(=O)Nc3cc4cc(-c5cnc6cc[nH]c6c5)ccc4cn3)cn2)CC1 [Compound 127, N-(6-(1H-Pyrrolo[3,2-b]pyridin-6-yl)isoquinolin-3-yl)-1-(1-methylpiperidin-4-yl)-1H-pyrazole-4-carboxamide] | 0.272 | – | – | – | –
4 | 0.004 | 0.013 | 0.031 | 9.07 | 0.678 | – | – | CN1CCC(n2cc(C(=O)Nc3cc4cc(-c5cncc6[nH]ccc56)ccc4cn3)cn2)CC1 [Compound 128, N-(6-(1H-Pyrrolo[2,3-c]pyridin-4-yl)isoquinolin-3-yl)-1-(1-methylpiperidin-4-yl)-1H-pyrazole-4-carboxamide] | 0.102 | – | – | – | –
5 | 0.018 | 1.37 | 1.17 | > 10 | 3.36 | – | – | CN1CCN(c2cc(C(=O)Nc3cc4cc(-c5cnc6[nH]ccc6c5)ccc4cn3)ccn2)CC1 [Compound 129, N-(6-(1H-Pyrrolo[2,3-b]pyridin-5-yl)isoquinolin-3-yl)-2-(4-methylpiperazin-1-yl)isonicotinamide] | 0.699 | – | – | – | –
6 | 0.004 | 0.378 | 0.501 | > 10 | 3.93 | – | – | CN1CCN(c2cc(C(=O)Nc3cc4cc(-c5cnc6cc[nH]c6c5)ccc4cn3)ccn2)CC1 [Compound 130, N-(6-(1H-Pyrrolo[3,2-b]pyridin-6-yl)isoquinolin-3-yl)-2-(4-methylpiperazin-1-yl)isonicotinamide] | 0.941 | – | – | – | –
7 | 0.003 | 0.235 | 0.285 | > 10 | 2.9 | – | – | CN1CCN(c2cc(C(=O)Nc3cc4cc(-c5cncc6[nH]ccc56)ccc4cn3)ccn2)CC1 [Compound 131, N-(6-(1H-Pyrrolo[2,3-c]pyridin-4-yl)isoquinolin-3-yl)-2-(4-methylpiperazin-1-yl)isonicotinamide] | 0.604 | – | – | – | –
8 | 0.057 | 4.08 | 3.74 | > 10 | 3.28 | – | – | Cc1cc2cc(-c3ccc4cnc(NC(=O)c5ccnc(N6CCN(C)CC6)c5)cc4c3)cnc2[nH]1 [Compound 133, N-(6-(2-Methyl-1H-pyrrolo[2,3-b]pyridin-5-yl)isoquinolin-3-yl)-2-(4-methylpiperazin-1-yl)isonicotinamide] | 4.03 | – | – | – | –
9 | 0.054 | 6.21 | 3.93 | > 10 | 8.81 | – | – | Cc1c[nH]c2ncc(-c3ccc4cnc(NC(=O)c5ccnc(N6CCN(C)CC6)c5)cc4c3)cc12 [Compound 134, N-(6-(3-Methyl-1H-pyrrolo[2,3-b]pyridin-5-yl)isoquinolin-3-yl)-2-(4-methylpiperazin-1-yl)isonicotinamide] | 2.75 | – | – | – | –
10 | 0.038 | 1.73 | 1.25 | > 10 | 9.06 | – | – | CN1CCN(c2cc(C(=O)Nc3cc4cc(-c5cnc6[nH]ccc6n5)ccc4cn3)ccn2)CC1 [Compound 136, N-(6-(5H-Pyrrolo[2,3-b]pyrazin-2-yl)isoquinolin-3-yl)-2-(4-methylpiperazin-1-yl)isonicotinamide] | 0.933 | – | – | – | –
11 | 0.027 | > 10 | 1.22 | > 10 | > 10 | – | – | CN1CCN(c2cc(C(=O)Nc3cc4cc(-c5cnc6cc[nH]c6n5)ccc4cn3)ccn2)CC1 [Compound 137, N-(6-(5H-Pyrrolo[2,3-b]pyrazin-3-yl)isoquinolin-3-yl)-2-(4-methylpiperazin-1-yl)isonicotinamide] | > 10 | 34.2 | 3.9 | 19.8 | –
12 | 0.002 | 0.039 | 0.071 | > 10 | 2.76 | – | – | CC(C)n1cc(C(=O)Nc2cc3cc(-c4cncc(NC5CCNCC5)n4)ccc3cn2)cn1 [Compound 138, 1-Isopropyl-N-(6-(6-(piperidin-4-ylamino)pyrazin-2-yl)isoquinolin-3-yl)-1H-pyrazole-4-carboxamide] | 0.078 | – | – | – | –
13 | 0.002 | 0.032 | 0.052 | > 10 | 0.361 | – | – | CC(C)n1cc(C(=O)Nc2cc3cc(-c4cncc(NC5CCN(C)CC5)n4)ccc3cn2)cn1 [Compound 139, 1-Isopropyl-N-(6-(6-((1-methylpiperidin-4-yl)amino)pyrazin-2-yl)isoquinolin-3-yl)-1H-pyrazole-4-carboxamide] | 0.148 | – | – | – | –
14 | 1.05 | > 10 | 0.724 | > 10 | 3.4 | – | – | O=C(Nc1cc2cc(-c3cccnc3)ccc2cn1)c1coc(C2CCNCC2)n1 [Compound 140, 2-(Piperidin-4-yl)-N-(6-(pyridin-3-yl)isoquinolin-3-yl)oxazole-4-carboxamide] | 1.68 | – | – | 6.6 | –
15 | 0.306 | 4.01 | 5.88 | > 10 | 9 | – | – | O=C(Nc1cc2cc(-c3cncc(F)c3)ccc2cn1)c1coc(C2CCNCC2)n1 [Compound 141, N-(6-(5-Fluoropyridin-3-yl)isoquinolin-3-yl)-2-(piperidin-4-yl)oxazole-4-carboxamide] | 1.51 | – | – | – | –
16 | 0.689 | 3.5 | > 10 | > 10 | > 10 | – | – | CN1CCC(c2nc(C(=O)Nc3cc4cc(-c5cccnc5)ccc4cn3)co2)CC1 [Compound 142, 2-(1-Methylpiperidin-4-yl)-N-(6-(pyridin-3-yl)isoquinolin-3-yl)oxazole-4-carboxamide] | > 10 | 8.8 | 7.8 | – | 16.9
17 | 6.8 | > 10 | > 10 | > 10 | > 10 | – | – | CN1CCC(c2nc(C(=O)Nc3cc4cc(-c5cncc(F)c5)ccc4cn3)co2)CC1 [Compound 143, N-(6-(5-Fluoropyridin-3-yl)isoquinolin-3-yl)-2-(1-methylpiperidin-4-yl) oxazole-4-carboxamide] | 2.44 | – | 8.2 | 0.8 | 8
18 | 0.012 | 0.266 | 0.441 | > 10 | 1.78 | – | – | Nc1cncc(-c2ccc3cnc(NC(=O)c4coc(C5CCNCC5)n4)cc3c2)c1 [Compound 148, N-(6-(5-Aminopyridin-3-yl)isoquinolin-3-yl)-2-(piperidin-4-yl)oxazole-4-carboxamide] | 1.19 | – | – | – | –
19 | 0.102 | 7.84 | > 10 | > 10 | 3.79 | – | – | CC(C)N1CCC(c2nc(C(=O)Nc3cc4cc(-c5cccnc5)ccc4cn3)co2)CC1 [Compound 149, 2-(1-Isopropylpiperidin-4-yl)-N-(6-(pyridin-3-yl)isoquinolin-3-yl)oxazole-4-carboxamide] | 3.4 | – | – | – | 39
20 | – | > 10 | > 10 | – | > 10 | 1.63 | > 10 | CC(C)N1CCC(c2nc(C(=O)Nc3cc4cc(-c5cncc(F)c5)ccc4cn3)co2)CC1 [Compound 150, N-(6-(5-Fluoropyridin-3-yl)isoquinolin-3-yl)-2-(1-isopropylpiperidin-4-yl) oxazole-4-carboxamide] | > 10 | 42 | 10.7 | 15.2 | 10.9
